Our source for the DC50 and Emax values is patent publication US12559492B2, “BRAF degraders” (C4 Therapeutics, Inc., priority 2020, dated 2026).

Where a name gives a salt, the structure may show the parent alone.

This assay deals with BRAF^V600E protein (Homo sapiens, UniProt P15056, V600E). As to the kind of experiment: HiBiT cellular BRAF V600E degradation assay. The assay is classed as cell-based. The following applies: 24 h incubation; for DC50: A375.10 cells (HiBiT tag knocked in at N-terminal of BRAF V600E), concentration at which 50% of total cellular BRAF V600E is degraded; for Emax: A375.10 cells, Emax = amount of residual protein remaining in the cell after compound treatment, read-out: HiBit 24 h Emax. (In general: With HiBiT, luminescence reflects the tagged protein that the partner subunit can reach.)
Chain of BRAF^V600E protein (P15056 whole entry V600E): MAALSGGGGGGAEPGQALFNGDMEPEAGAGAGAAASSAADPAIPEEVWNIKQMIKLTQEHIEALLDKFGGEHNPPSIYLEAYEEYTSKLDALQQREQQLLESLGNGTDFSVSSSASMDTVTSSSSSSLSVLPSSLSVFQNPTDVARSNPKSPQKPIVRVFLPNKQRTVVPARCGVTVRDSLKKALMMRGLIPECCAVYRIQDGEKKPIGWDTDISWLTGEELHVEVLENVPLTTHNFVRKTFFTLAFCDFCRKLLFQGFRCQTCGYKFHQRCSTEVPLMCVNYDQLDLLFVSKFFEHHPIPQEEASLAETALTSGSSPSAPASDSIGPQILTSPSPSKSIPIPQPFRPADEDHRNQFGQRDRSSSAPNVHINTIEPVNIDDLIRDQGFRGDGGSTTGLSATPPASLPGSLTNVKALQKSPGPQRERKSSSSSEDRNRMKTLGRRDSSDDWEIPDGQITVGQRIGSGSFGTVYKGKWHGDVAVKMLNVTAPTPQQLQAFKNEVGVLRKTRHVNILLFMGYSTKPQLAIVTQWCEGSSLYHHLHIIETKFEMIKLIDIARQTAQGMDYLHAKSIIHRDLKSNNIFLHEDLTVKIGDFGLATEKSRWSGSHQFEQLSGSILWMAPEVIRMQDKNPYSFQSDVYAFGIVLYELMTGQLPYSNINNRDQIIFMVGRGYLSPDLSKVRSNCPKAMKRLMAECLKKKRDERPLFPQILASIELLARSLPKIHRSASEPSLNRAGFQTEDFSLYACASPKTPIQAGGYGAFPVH

Broadly, the DC50 is the concentration giving 50% degradation. Low values mean degradation at low concentration, high ones degradation only at high concentration. Usually Emax stands for the size of the effect at its maximum, as opposed to the concentration needed. Turning to `CCN(C)S(=O)(=O)Nc1ccc(F)c(C(=O)c2c[nH]c3ncc(-c4ccc(N5CCC(NCC(=O)N6CCC(c7ccc(OC8CCC(=O)NC8=O)cc7)CC6)CC5)nc4)cc23)c1F` (stereo not drawn) [Example A109, 5-[6-[4-[[2-[4-[4-(2,6-Dioxopiperidin-3-yl)oxyphenyl]piperidin-1-yl]-2-oxoethyl]amino]piperidin-1-yl]pyridin-3-yl]-3-[3-[[ethyl(methyl)sulfamoyl]amino]-2,6-difluorobenzoyl]-1H-pyrrolo[2,3-b]pyridine; formic acid], half-maximal degradation (DC50) was put at 44 nM and the Emax was found to be 13%.
With `CCN(C)S(=O)(=O)Nc1ccc(F)c(C(=O)c2c[nH]c3ncc(-c4ccc(N5CCC(NCC(=O)N6CCC(c7ccc(NC8CCC(=O)NC8=O)cn7)CC6)CC5)cc4)cc23)c1F` (stereo not drawn) [Example A96, 5-[4-[4-[[2-[4-[5-[(2,6-Dioxopiperidin-3-yl)amino]pyridin-2-yl]piperidin-1-yl]-2-oxoethyl]amino]piperidin-1-yl]phenyl]-3-[3-[[ethyl(methyl)sulfamoyl]amino]-2,6-difluorobenzoyl]-1H-pyrrolo[2,3-b]pyridine; hydrochloride], it took 18 nM to reach half-maximal degradation (DC50) and the maximal effect (Emax) stood at 9%.
Turning to `CC(C)S(=O)(=O)Nc1ccc(F)c(C(=O)c2c[nH]c3ncc(-c4cnc(N5CCN(C(=O)CN6CCC(c7ccc(NC8CCC(=O)NC8=O)cc7)CC6)CC5)nc4)cc23)c1F` (stereo not drawn) [Example 5, N-[3-[5-[2-[4-[2-[4-[4-[(2,6-dioxo-3-piperidyl)amino]phenyl]-1-piperidyl]acetyl]piperazin-1-yl]pyrimidin-5-yl]-1H-pyrrolo[2,3-b]pyridine-3-carbonyl]-2,4-difluoro-phenyl]propane-2-sulfonamide], half-maximal degradation (DC50) was put at 3.94 nM and the Emax worked out at 8.8%.
On to `CCN(C)S(=O)(=O)Nc1ccc(F)c(C(=O)c2c[nH]c3ncc(-c4ccc(N5CCC(N(C)CC(=O)N6CCC(c7ccc(NC8CCC(=O)NC8=O)cn7)CC6)CC5)nc4)cc23)c1F` (stereo not drawn) [Example A101, 5-[6-[4-[[2-[4-[5-[(2,6-Dioxopiperidin-3-yl)amino]pyridin-2-yl]piperidin-1-yl]-2-oxoethyl]-methylamino]piperidin-1-yl]pyridin-3-yl]-3-[3-[[ethyl(methyl)sulfamoyl]amino]-2,6-difluorobenzoyl]-1H-pyrrolo[2,3-b]pyridine; hydrochloride], for which it took 20 nM to reach half-maximal degradation (DC50) and the Emax amounted to 19%.
For `O=C1CCC(Oc2ccc(C3CCN(CC(=O)N4CC5(C4)CN(c4ccc(-c6cnc7[nH]cc(C(=O)c8c(F)ccc(NS(=O)(=O)N9CCCC9)c8F)c7c6)cc4)C5)CC3)cc2)C(=O)N1` (stereo not drawn) [Example A116, N-[3-[5-[4-[2-[2-[4-[4-(2,6-Dioxopiperidin-3-yl)oxyphenyl]piperidin-1-yl]acetyl]-2,6-diazaspiro[3.3]heptan-6-yl]phenyl]-1H-pyrrolo[2,3-b]pyridine-3-carbonyl]-2,4-difluorophenyl]pyrrolidine-1-sulfonamide], the DC50 was 26 nM and the Emax amounted to 8%.
Take `CCN(C)S(=O)(=O)Nc1ccc(F)c(C(=O)c2c[nH]c3ncc(-c4ccc(N5CCN(C(=O)CC6(O)CCN(c7ccc(NC8CCC(=O)NC8=O)c(F)c7)CC6)CC5)cc4)cc23)c1F` (stereo not drawn) [Example 184, 5-[4-[4-[2-[1-[4-[(2,6-dioxo-3-piperidyl)amino]-3-fluoro-phenyl]-4-hydroxy-4-piperidyl]acetyl]piperazin-1-yl]phenyl]-3-[3-[[ethyl(methyl)sulfamoyl]amino]-2,6-difluoro-benzoyl]-1H-pyrrolo[2,3-b]pyridine]: half-maximal degradation (DC50) was put at 3.54 nM and the Emax is 9.04%.
